Results: publication PMC10037464, “Chemical Knockdown of Phosphorylated p38 Mitogen-Activated Protein Kinase (MAPK) as a Novel Approach for the Treatment of Alzheimer′s Disease” (ACS Central Science, 2023)

Columns and labels:
[1] = target: T1, p38 MAPK, active phosphomimetic mutant (Homo sapiens, UniProt Q16539, D176A); experiment: degradation of expressed mutant in HEK293T cells (immunoblot); assay type: cell-based
T1 construct: gene MAPK14; p38 active form expressed in HEK293T cells

[2] = target: T2, phosphorylated p38 MAPK (p-p38) (Homo sapiens, UniProt Q16539); experiment: CRBN- and proteasome-dependent degradation in cells (immunoblot DC50); assay type: cell-based
T2 construct: gene MAPK14; phosphorylated p38 in HEK293T cells
T2 sequence (Q16539 2-360): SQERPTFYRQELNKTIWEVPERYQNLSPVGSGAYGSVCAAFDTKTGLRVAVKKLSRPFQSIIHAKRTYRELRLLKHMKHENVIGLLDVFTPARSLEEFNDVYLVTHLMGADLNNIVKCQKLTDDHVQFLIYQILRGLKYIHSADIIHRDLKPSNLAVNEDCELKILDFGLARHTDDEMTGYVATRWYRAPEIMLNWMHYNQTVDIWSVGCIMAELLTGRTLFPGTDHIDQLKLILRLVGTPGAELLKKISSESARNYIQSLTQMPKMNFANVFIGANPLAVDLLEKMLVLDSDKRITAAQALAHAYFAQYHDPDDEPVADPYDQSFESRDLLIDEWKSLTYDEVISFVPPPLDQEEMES
T2 sequence (Q96SW2 whole entry partner): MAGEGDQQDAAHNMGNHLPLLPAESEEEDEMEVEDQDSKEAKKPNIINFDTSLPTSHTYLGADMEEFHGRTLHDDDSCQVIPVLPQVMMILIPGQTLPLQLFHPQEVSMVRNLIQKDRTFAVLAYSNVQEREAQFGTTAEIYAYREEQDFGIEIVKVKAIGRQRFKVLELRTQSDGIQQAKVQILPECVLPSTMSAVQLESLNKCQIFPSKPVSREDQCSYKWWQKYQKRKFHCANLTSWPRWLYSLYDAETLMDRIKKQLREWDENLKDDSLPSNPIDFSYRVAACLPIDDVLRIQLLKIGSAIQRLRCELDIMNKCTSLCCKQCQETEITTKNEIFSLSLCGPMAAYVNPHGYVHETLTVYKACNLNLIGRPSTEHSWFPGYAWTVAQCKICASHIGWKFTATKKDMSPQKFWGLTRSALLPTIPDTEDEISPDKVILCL

T1 sequence (Q16539 2-360 D176A): as the sequence (Q16539 2-360) above, with D175A counted along it

DC50 [2]: 93 nM
Compound: Cc1ccc(C(=O)NC2CC2)cc1-c1ccc(C(=O)c2ccc(OCCOCCOC(=O)Nc3cccc4c3C(=O)N(C3CCC(=O)NC3=O)C4=O)cc2)cc1 (centres unmarked) [compound 2, PRZ-18002]
degradation of expressed mutant in HEK293T cells (immunoblot) [1]: significant reduction of active p38 mutant (D176A) in preference to wild-type p38
